# Measurements: the NIST ThermoML archive (doi:10.1016/j.jct.2006.06.002)
# Numbers after ± are expanded uncertainties.
# Test: refractive index (Na D-line) (dimensionless)
# Settings: 101.33 kPa, Liquid, Standard Abbe refractometry
refractive index (303.15 K),refractive index (293.15 K),Structure (SMILES)
1.4954 ± 0.0009,–,c1ccccc1 [benzene]
–,1.3288 ± 0.0009,CO [methanol]
